Source: patent publication US9429582B2, “Tyrosine-phosphorylated WBP2, a novel cancer target and biomarker” (National University of Singapore, priority 2010, dated 2016)
Where two headings read alike, the source gives them in different places.

Key:
Type in all cases: cell-based, human
[1] = system: WBP2-Y192-231E mutant-expressing MCF7; assay: Cell proliferation (MTS / cell numbers) of WBP2-Y192-231E mutant-expressing MCF7
Procedure: (§1) A: Whole cell lysates from vector, WBP2-WT, WBP2-Y192-231E mutant and WBP2-Y192-231F mutant expressing MCF7 or Y192-231E mutant expressing MCF7 with WBP2 knockdown were used for IB analysis with antibodies indicated. B: Vector, WBP2-WT, WBP2-Y192-231E mutant or WBP2-Y192-231F mutant-expressing MCF7 were co-transfected with TOPFlash (top panel) or ERE-Luciferase (bottom panel) reporter construct. For cells co-transfected ERE-luciferase, they were either left alone or stimulated with 50 ng/ml Wnt3a ligand for 16 hrs. TCF/ERα luciferase activities in various conditions were then assayed. **P<0.01, ***P<0.001, Student's t-test (2-tailed). C: Vector or WBP2-Y192-231E mutant-expressing MCF7 were treated with indicated concentrations of Tamoxifen(Tam) and/or FH535. Cell numbers were measured. D: Whole cell lysates from WBP2-Y192-231E mutant-expressing MCF7 treated with 2 μM Tam and/or 15 μM FH5353 were harvested at day 2-4 post-treatment and used for IB analysis with antibodies indicated.
Effect of knockdown of E2F1 and E2F3 on MCF7 cells overexpressing WBP2-Y192-231E. A. MCF7 cells expressing WBP2-Y192-231E were transfected with indicated siRNAs and knockdown efficiency was confirmed using western blotting. B. Cells were co-transfected with indicated siRNAs and E2F reporter plasmid and harvested for luciferase assay after 48 hours. Luciferase readings were normalized against constitutive TK promoter renilla luciferase readings. C. Cells were transfected with indicated siRNAs and BrdU incorporation assay was performed. Percentages of BrdU positive cells relative to control siRNA treated cells were plotted as bar charts. D. Cells were transfected with indicated siRNAs. MTS assay was performed on day 3. Percentages of cell proliferation relative to control siRNA treated cells were plotted as bar charts.
Whole cell lysates from vector, WBP2-WT, WBP2-Y192-231E mutant and WBP2-Y192-231F mutant expressing MCF7 (A) or Y192-231E mutant expressing MCF7 with WBP2 knockdown (B) were used for IB analysis with antibodies indicated. Their expression levels were quantified in three independent experiments and the averages were presented relative to actin. Representative blots (order in lanes from left to right: vector, WBP2, Y192-231E, Y192F) were presented as insets to the bar graphs. **P<0.01, ***P<0.001, Student's t-test (2-tailed) relative to vector. Vector, WBP2-WT, WBP2-Y192-231E mutant or WBP2-Y192-231F mutant-expressing MCF7 were cotransfected with TOPFlash(C) or ERE-Luciferase(D) reporter construct. For cells co-transfected ERE luciferase, they were either left alone or stimulated with 50 ng/ml Wnt3a ligand for 16 hrs. TCF(C)/ER[…](D) luciferase activities in various conditions were then assayed and analyzed in relative to untreated vector control. **P<0.01, ***P<0.001, Student's t-test (2-tailed). E: Vector or WBP2-Y192-231E mutant-expressing MCF7 were treated with indicated concentrations of 2 µM tamoxifen (Tam) and/or 15 µM FH535 for 4 days. Cell numbers were measured daily and compared in relative to vehicle treated vector-expressing cells on Day 0. F: Vector or WBP2-Y192-231E mutant-expressing MCF7 were treated with indicated concentrations (0-50 µM) of FH535 for 2 days. Cell numbers were measured and compared in relative to vehicle-treated cells. Their […] were analyzed statistically with SPSS 13.0. G: Whole cell lysates from WBP2-Y192-231E mutant-expressing MCF7 treated with 2 μM Tam and/or 15 μM FH5353 were harvested at day 2-4 post-treatment and used for IB analysis with antibodies indicated. H: Vector or WBP2-Y192-231E mutant-expressing MCF7 were treated with indicated concentrations of 100 nM fulvestrant and/or 15 µM FH535 for 4 days. Cell numbers were measured on day 2 and day 4 and compared in relative to vehicle-treated control at each day (Top Panel). These treated cells were harvested for IB analysis with antibodies indicated (Bottom Panel). […]

[2] = system: ERα; assay: Immunoblot of ERα expression in drug-treated WBP2-Y192-231E mutant-expressing MCF7
Procedure: For cells co-transfected ERE-luciferase, they were either left alone or stimulated with 50 ng/ml Wnt3a ligand for 16 hrs. TCF/ERα luciferase activities in various conditions were then assayed. **P<0.01, ***P<0.001, Student's t-test (2-tailed). […] Cell numbers were measured.
Their expression levels were quantified in three independent experiments and the averages were presented relative to actin. […] For cells co-transfected ERE luciferase, they were either left alone or stimulated with 50 ng/ml Wnt3a ligand for 16 hrs. TCF(C)/ER[…](D) luciferase activities in various conditions were then assayed and analyzed in relative to untreated vector control. **P<0.01, ***P<0.001, Student's t-test (2-tailed). […] Cell numbers were measured daily and compared in relative to vehicle treated vector-expressing cells on Day 0. […] Cell numbers were measured and compared in relative to vehicle-treated cells. […] Cell numbers were measured on day 2 and day 4 and compared in relative to vehicle-treated control at each day (Top Panel). These treated cells were harvested for IB analysis with antibodies indicated (Bottom Panel).
First, we exposed WBP2 phospho-mimic expressing MCF7 cells to serial concentrations of fulvestrant (0.1 nM, 1 nM, 10 nM, 100 nM and 1 μM) and probed for ERα expression to determine the effective working concentration. […] Next, we compared the growth and proliferation of WBP2 phospho-mimic mutant expressing MCF7 in the presence of 100 nM fulvestrant or 15 μM FH535.

[3] = system: vector-expressing MCF7; assay: Cell proliferation (MTS / cell numbers) of vector-expressing MCF7; conditions: Homo sapiens, 96 h; MCF7 cells expressing vector; day 4; 100 nM fulvestrant or 15 μM FH535; read-out: inhibition of growth / reduction of proliferation
Procedure: as §1
Whole cell lysates from vector, WBP2-WT, WBP2-Y192-231E mutant and WBP2-Y192-231F mutant expressing MCF7 (A) or Y192-231E mutant expressing MCF7 with WBP2 knockdown (B) were used for IB analysis with antibodies indicated. Their expression levels were quantified in three independent experiments and the averages were presented relative to actin. Representative blots (order in lanes from left to right: vector, WBP2, Y192-231E, Y192F) were presented as insets to the bar graphs. **P<0.01, ***P<0.001, Student's t-test (2-tailed) relative to vector. […] TCF(C)/ER[…](D) luciferase activities in various conditions were then assayed and analyzed in relative to untreated vector control. **P<0.01, ***P<0.001, Student's t-test (2-tailed). […] Cell numbers were measured daily and compared in relative to vehicle treated vector-expressing cells on Day 0. […] Cell numbers were measured and compared in relative to vehicle-treated cells. Their […] were analyzed statistically with SPSS 13.0. […] Cell numbers were measured on day 2 and day 4 and compared in relative to vehicle-treated control at each day (Top Panel). […]

| Compound | growth inhibition ([1]; Y192-231E-expressing MCF7 treated with Tamoxifen) | retardation of proliferation ([1]; Y192-231E-expressing cells, higher doses of up to 2000 nM) | ERα expression [2] | inhibition at 0.1 µM ([1]; Homo sapiens, 96 h, MCF7 cells expressing Y192-231E mutant, day 4, 100 nM fulvestrant or 15 μM FH535, read-out: inhibition of growth / reduction of proliferation) [%] | inhibition at 0.1 µM [3] [%] | ERα expression ([2]; WBP2 phospho-mimic expressing MCF7, one hundred nM fulvestrant, data not shown) |
| --- | --- | --- | --- | --- | --- | --- |
| CC/C(=C(\c1ccccc1)c1ccc(OCCN(C)C)cc1)c1ccccc1 [Tamoxifen] | No significant growth inhibition | unremarkable | but not Tamoxifen significantly reduced |  |  |  |
| C[C@]12CC[C@@H]3c4ccc(O)cc4C[C@@H](CCCCCCCCC[S+]([O-])CCCC(F)(F)C(F)(F)F)[C@H]3[C@@H]1CC[C@@H]2O (stereo partly drawn) [fulvestrant] |  |  |  | ~40 | ~50 | almost completely abolished |
